Here are results for 41 compounds from patent US8198335B2, “Cosmetic material” (Parahermosa Co., Ltd., priority 2009, dated 2012).

The nature of data set [1]: Check for precipitation of crystal in 1:1 mixtures of oil solution and diethyl amino hydroxy benzoyl hexyl benzoate kept at 5° C. The class given is physicochemical. Set-up: key to Evaluation results 1 week / Evaluation results Following day / Evaluation results Same day: X: Evaluation results accompanied by an x in Table 2 indicate that crystal had precipitated at the applicable point in time. Conditions: for Evaluation results Following day / Evaluation results Same day / Evaluation results 1 week / Evaluation results 6 months: 1:1 by mass with diethyl amino hydroxy benzoyl hexyl benzoate, kept at 5° C.; for Evaluation results Following day: checked after one day; for Evaluation results Same day: heated to 80° C., cooled, checked after half a day; for Evaluation results 1 week: checked after one week; for Evaluation results 6 months: checked after six months. From the text:
Evaluation results accompanied by an x in Table 2 indicate that crystal had precipitated at the applicable point in time.

The nature of data set [2]: Low-temperature behaviour of octyl hydroxy stearate monomer and oligomers (clouding point, liquid state). In kind it is physicochemical. From the text: A monomer of octyl hydroxy stearate has problems in terms of stable dissolution of poorly soluble substances, while an octamer and above lead to poor self-condensing property of 12-hydroxy stearate and result in a broad distribution of molecular weight, which in turn causes unstable quality, solidification at temperatures below zero, and undesirable touch and other tactile senstations. For example, a monomer of octyl hydroxy stearate is a low-viscosity oil which is non-sticky and has a clean touch and also offers excellent oxidization stability. However, its clouding point is high, or at approx. 20° C., and thus crystal generates in the solution or the entire formulation solidifies in winter, resulting in markedly lower feeling of use and other problems such as the formulation not coming out of the container due to an increased viscosity. An octamer has similar problems. A dimer of octyl hydroxy stearate is structurally a monomer with one more molecule unit. However, it has substantially different chemical properties.

For data set [3] the following is noted: cited from earlier work.

`CCCCCCCC(=O)OCC(C)OC(=O)CCCCCCC` (centres unmarked) [Component 30, Propylene glycol dicaprylate]: the “Evaluation results Following day” value in data set [1] is given as “X”.

On to `CCCCC(CC)C(=O)OCC(C)(C)COC(=O)C(CC)CCCC` (centres unmarked) [Component 51, Neopentyl glycol diethyl hexanoate], for which the “Evaluation results Following day” value in data set [1] is recorded as “X”.

`CCCCCCCCCCC(CO)CCCCCCCC` (centres unmarked) [Component 29, Octyl dodecanol]: the “Evaluation results Following day” value in data set [1] is recorded as “X”.

For the compound `CCCCCCCCCCC(CCCCCCCC)COC(=O)C(C)O` (centres unmarked) [Component 52, Octyl dodecyl lactate], the “Evaluation results Following day” value in data set [1] is on record as “X”.

On to Cyclomethicone [Component 64], for which the “Evaluation results Same day” value in data set [1] is “X”.

Regarding Sorbitan isostearate [Component 36], the “Evaluation results Following day” value in data set [1] was “X”.

For the compound `CCCCCCCCCCCCCCCCOC(=O)C(CC)CCCC` (centres unmarked) [Component 19, Cetyl ethyl hexanoate], in data set [1], the “Evaluation results Following day” value was “X”.

Take `COc1ccc(C(=O)c2ccccc2)c(O)c1` [Component 59, Benzophenone-3]: the “Evaluation results Same day” value in data set [1] was “X”.

`CCCCC(CC)C(=O)OCC(COC(=O)C(CC)CCCC)OC(=O)C(CC)CCCC` (centres unmarked) [Component 21, Glycerin tri 2-ethyl hexanoate]: the “Evaluation results Following day” value in data set [1] is reported as “X”.

For `CCCCCCC(O)CCCCCCCCCCC(=O)OCC(CC)CCCC` (centres unmarked) [Component 16, Octyl hydroxyl stearate (monomer)], in data set [2], the clouding point entry was “approx. 20 °C”. Also, the “Evaluation results 1 week” value in data set [1] was “X”. Also, the “precipitation of crystal / stability of the 1:1 mixture, in words” value in data set [1] (summary of Table 2, 5° C.) is recorded as “crystal precipitated after one week”.

`OCC(O)CO` [Component 31, Glycerin]: the “Evaluation results Same day” value in data set [1] is given as “X”.

For “Octyl hydroxyl stearate oligomer (pentamer) [Component 4]”, the “Evaluation results 6 months” value in data set [1] is given as “◯”.

Regarding `CC(O)CCO` (centres unmarked) [Component 32, 1,3-BG], in data set [1], the “Evaluation results Following day” value was “X”.

As to `CC(C)CCCCCCOC(=O)CCCCCC(C)C` [Component 25, Isononyl isononanate], the “Evaluation results Following day” value in data set [1] was “X”.

`CCCCCCCC(=O)OCC(C)(C)COC(=O)CCCCCCC` [Component 53, Neopentyl glycol dicaprylate]: the “Evaluation results Same day” value in data set [1] is on record as “X”.

Consider `CCCCCCCCCCCCCCCCCCO` [Component 61, Stearyl alcohol], for which, in data set [1], the “Evaluation results Same day” value is “X”.

`CCCCCCOC(=O)c1ccccc1C(=O)c1ccc(N(CC)CC)cc1O` [diethyl amino hydroxy benzoyl hexyl benzoate]: the “dissolves in 2-ethyl hexyl para-methoxy cinnamate” value in data set [3] (solvent 2-ethyl hexyl para-methoxy cinnamate) was 42%. In data set [3] (solvent cyclomethicone (volatile silicone)), the dissolves in cyclomethicone is 0.4%. In addition, the “dissolves in octyl para-methoxy cinnamate” value in data set [3] (solvent octyl para-methoxy cinnamate) was “up to 42 percent by mass”.

On to `CCCCC(CC)COC(=O)/C=C/c1ccc(OC)cc1` (centres unmarked) [Component 56, Ethyl hexyl para-methoxy cinnamate], for which the “Evaluation results 1 week” value in data set [1] was “X”.

For “Erythrityl triethyl hexanoate [Component 45]”, in data set [1], the “Evaluation results Following day” value is given as “X”.

Sorbitan sesquioleate [Component 35]: the “Evaluation results Following day” value in data set [1] is given as “X”.

As for `CCCCC(CC)C(=O)OCC(CC)(CO)COCC(CC)(COC(=O)C(CC)CCCC)COC(=O)C(CC)CCCC` (centres unmarked) [Component 44, Ditrimethylol propane triethyl hexanoate], the “Evaluation results Following day” value in data set [1] is reported as “X”.

For `CCCCCCCCOC(=O)OCCCCCCCC` [Component 57, Dicapryl carbonate], the “Evaluation results Same day” value in data set [1] is on record as “X”.

Consider `CCCCCCCCCCCCCCCC(=O)OC(C)C` [Component 33, Isopropyl palmitate], for which, in data set [1], the “Evaluation results Same day” value was “X”.

Regarding `CC(C)CCCC(C)CCCC(C)CCCCC(C)CCCC(C)CCCC(C)C` (centres unmarked) [Component 26, Squalane], the “Evaluation results Same day” value in data set [1] was “X”.

Regarding “Diglyceryl tetraisostearate [Component 49]”, the “Evaluation results Following day” value in data set [1] is reported as “X”.

For `CC(C)CCCCCCCCCCCCCCCOC(=O)CC(O)C(=O)OCCCCCCCCCCCCCCCC(C)C` (centres unmarked) [Component 47, Diisostearyl malate], in data set [1], the “Evaluation results Following day” value is given as “X”.

As to `CC(C)CCCCCCCCCCOC(=O)CCCCCC(C)C` [Component 17, Isotridecyl isononanate], in data set [1], the “Evaluation results Following day” value is “X”.

As to “Ditrimethylol propane (isostearate/sebacate) [Component 46]”, the “Evaluation results Following day” value in data set [1] was “X”.

On to C12-15 alkyl benzoate [Component 62], for which the “Evaluation results Following day” value in data set [1] is listed as “X”.

`CCCCCCCCOCCCCCCCC` [Component 58, Dioctyl ether]: in data set [1], the “Evaluation results Following day” value is “X”.

“Octyl hydroxyl stearate oligomer (tetramer) [Component 3]”: the “Evaluation results 6 months” value in data set [1] is listed as “◯”.

On to “Glycerin tri (capryl/caprate) [Component 28]”, for which, in data set [1], the “Evaluation results Following day” value is listed as “X”.

For “Octyl hydroxyl stearate oligomer (hexamer) [Component 5]”, the “Evaluation results 6 months” value in data set [1] was “◯”.

For the compound “Octyl hydroxyl stearate oligomer (dimmer) [Component 1]”, the “state at 5° C.” value in data set [2] (5° C.) is on record as “remains permanently liquid”. Also, the “Evaluation results 6 months” value in data set [1] was “◯”.

As to `CCCCC(CC)C(=O)OCC(COC(=O)C(CC)CCCC)OC(=O)C(CC)CCCC` (centres unmarked) [Component 50, Triethyl hexanoin], the “Evaluation results Following day” value in data set [1] is listed as “X”.

On to “Octyl hydroxyl stearate oligomer (trimer) [Component 2]”, for which the “Evaluation results 6 months” value in data set [1] was “◯”.

As to “Octyl hydroxyl stearate oligomer (heptamer) [Component 6]”, the “Evaluation results 6 months” value in data set [1] was “◯”.

With `CCCCCCCCCCCCCCCC(=O)OCC(CC)CCCC` (centres unmarked) [Component 20, Ethyl hexyl palmitate], the “Evaluation results Following day” value in data set [1] is on record as “X”.

Take DPG [Component 22]: in data set [1], the “Evaluation results Same day” value is listed as “X” and the “Evaluation results Following day” value is “X”.

Consider `CCCCCCCCCCCCCC(=O)OCC(CCCCCCCC)CCCCCCCCCC` (centres unmarked) [Component 34, Octyl dodecyl myristate], for which the “Evaluation results Same day” value in data set [1] is reported as “X”.

For `CCO` [Component 18, Ethanol (99%)], in data set [1], the “Evaluation results Following day” value is listed as “X”.
